US9296741B2, “Bromodomain inhibitors” (priority 2012, dated 2016)
Like-named read-outs stand apart in the source and are kept apart here. Marks after values point to notes of the source that are not given here.

Key:
[1] = tested on: breast cancer cell line MX-1; assay: MX-1 cell line proliferation assay; format: cell-based, human; conditions: Homo sapiens, MX1, 72 h; MX-1 cells, 3-day proliferation, Cell Titer Glo; read-out: Cellular proliferation: EC50
[2] = Rat liver microsome stability assay; format: in vitro ADME; conditions: rat liver microsomes (male Sprague-Dawley), 0.5 μM test compound, 0.25 mg/mL microsomal protein, pH 7.4, 37° C.; read-out: Stability in rat liver microsomes (t1/2 in minutes)
[3] = Mouse liver microsome stability assay; format: in vitro ADME; conditions: male, CD1, mouse, microsomes, pH 7.4
[4] = tested on: rat collagen induced arthritis (rCIA) paw swelling
[5] = tested on: MV4-11 human cancer cell xenograft; assay: Xenograft efficacy study, MV4-11; format: in vivo, mouse; conditions: PO, QDx21, vehicle D
[6] = tested on: MX-1 human breast cancer xenograft tumors; assay: Xenograft tumor growth inhibition assay, MX-1; format: in vivo, mouse
[7] = Human liver microsome stability assay; format: in vitro ADME; conditions: both sexes, human, microsomes, pH 7.4
[8] = tested on: LPS induced IL-6 production; assay: LPS (lipopolysaccharide) induced IL-6 production mouse assay; format: in vivo; conditions: Mus musculus, read-out: Inhibition of LPS induced IL-6 production in Mice, % inhibition at 3 mg/kg; 3 mg/kg oral, 1 h before LPS; serum IL-6 2 h after LPS
[9] = tested on: rat collagen induced arthritis (rCIA) paw swelling; assay: animal or person; conditions: po, read-out: ED50, inhibition of inflammation in the arthritic paw
[10] = tested on: OPM-2 human multiple myeloma xenograft tumors; assay: animal or person; conditions: Mus musculus; for change in vivo at 0.5 mg/kg / inhibition in vivo at 0.5 mg/kg: 0.5 mg/kg/day; for change in vivo at 1 mg/kg / inhibition in vivo at 1 mg/kg: 1 mg/kg/day
[11] = tested on: SKM1 human cancer cell xenograft; assay: Xenograft efficacy study, SKM1; format: in vivo, mouse; conditions: PO, QDx21, vehicle A
[12] = biological target: human BRD4 first bromodomain (BDI_K57-E168) (Homo sapiens (Human), UniProt O60885); assay: TR-FRET bromodomain binding assay, BRD4 first bromodomain
[13] = tested on: HT1080 human cancer cell xenograft; assay: Xenograft efficacy study, HT1080; format: in vivo, mouse; conditions: PO, QDx14, vehicle H
[14] = MX-1, 0.3 mg/kg/day, PO, QD, vehicle F
[15] = MX-1, 1 mg/kg/day, PO, QD, vehicle F
[16] = MX-1, 3 mg/kg/day, PO, QD, vehicle F
[17] = OPM-2, po, read-out: % TGI (tumor growth inhibition), OPM-2, PO, QDx21, vehicle A

EC50 [1]: 17.4 nM
half-life at 0.5 μM [2]: > 120 min
half-life at 0.5 μM [3]: 41 min
maximum plasma concentration at the ED50 ([4]; female, Lewis, rat, in vivo): 6.8 ng/mL
maximum plasma concentration at the ED80 ([4]; female, Lewis, rat, in vivo): 22.3 ng/mL
% removed from study ([5]; 0.2 mg/kg/day): 0%
% removed from study ([5]; 2 mg/kg/day): 0%
half-life at 0.5 μM [7]: > 120 min
% removed from study ([11]; 0.2 mg/kg/day): 0%
% removed from study ([11]; 2 mg/kg/day): 0%
Ki [12]: 3.5 nM
% removed from study ([13]; 0.3 mg/kg/day): 30%
% removed from study ([13]; 1 mg/kg/day): 10%
% removed from study ([13]; 3 mg/kg/day): 10%
SMILES: CCS(=O)(=O)Nc1ccc(Oc2ccc(F)cc2F)c(-c2cn(C)c(=O)c3[nH]ccc23)c1 [Example 36, N-[4-(2,4-difluorophenoxy)-3-(6-methyl-7-oxo-6,7-dihydro-1H-pyrrolo[2,3-c]pyridin-4-yl)phenyl]ethanesulfonamide]
AUC of Paw Swelling, MEAN ([4]; rCIA, dosed at 0.03 mg/kg orally once daily day 10-17): 4.19 mL·days
AUC of Paw Swelling, MEAN ([4]; rCIA, dosed at 0.1 mg/kg orally once daily day 10-17): 3.66* ml-day
AUC of Paw Swelling, MEAN ([4]; rCIA, dosed at 0.3 mg/kg orally once daily day 10-17): 1.84** ml-day
AUC of Paw Swelling, MEAN ([4]; rCIA, dosed at 1.0 mg/kg orally once daily day 10-17): 0.70** ml-day
ED80, inhibition of inflammation in the arthritic paw ([4]; rCIA, oral once daily): 0.69 mg/kg
% TGD (tumor growth delay) ([5]; 0.2 mg/kg/day): 16*** %
% TGI (tumor growth inhibition) ([5]; 0.2 mg/kg/day): 22* %
% TGD (tumor growth delay) ([5]; 2 mg/kg/day): 94* %
% TGI (tumor growth inhibition) ([5]; 2 mg/kg/day): 81*** %
% TGD (tumor growth delay) [6, 14]: 40%
% TGI (tumor growth inhibition) [6, 14]: 43** %
% removed from study [6, 14]: 0%
% TGI (tumor growth inhibition) [6, 15]: 60*** %
% removed from study [6, 15]: 0%
% TGI (tumor growth inhibition) [6, 16]: 76*** %
% removed from study [6, 16]: 0%
% TGI (tumor growth inhibition) ([6]; MX-1 xenograft, 0.3 mg/kg/day PO, QDx14, based on day 27): 43** %
% TGI (tumor growth inhibition) ([6]; MX-1 xenograft, 1 mg/kg/day PO, QDx14, based on day 27): 60*** %
% TGI (tumor growth inhibition) ([6]; MX-1 xenograft, 3 mg/kg/day PO, QDx14, based on day 27): 76*** %
inhibition in vivo at 3 mg/kg [8]: 78%
ED50 [9]: 0.21 mg/kg
change in vivo at 0.5 mg/kg ([10]; OPM-2, ip, read-out: % TGD (tumor growth delay), OPM-2, IP, QDx21, vehicle F): 52%
change in vivo at 1 mg/kg ([10]; OPM-2, ip, read-out: % TGD (tumor growth delay), OPM-2, IP, Q4DX3, vehicle F): 80%
inhibition in vivo at 0.5 mg/kg ([10]; OPM-2, ip, read-out: % TGI (tumor growth inhibition), OPM-2, IP, QDx21, vehicle F): 49%
inhibition in vivo at 1 mg/kg ([10]; OPM-2, ip, read-out: % TGI (tumor growth inhibition), OPM-2, IP, Q4DX3, vehicle F): 61%
inhibition in vivo at 1 mg/kg ([10]; OPM-2, iv, read-out: % TGI (tumor growth inhibition), OPM-2, IV, Q4Dx3, vehicle C): 69%
inhibition in vivo at 3 mg/kg ([10]; OPM-2, po, 744 h, read-out: % TGI (tumor growth inhibition), OPM-2 xenograft, 3 mg/kg/day PO, QDx14, based on day 31): 90%
change in vivo at 0.5 mg/kg ([10]; OPM-2, po, read-out: % TGD (tumor growth delay), OPM-2, PO, QDx21, vehicle A): 101%
change in vivo at 1 mg/kg ([10]; OPM-2, po, read-out: % TGD (tumor growth delay), OPM-2, PO, BIDx21, vehicle A): 140%
change in vivo at 3 mg/kg ([10]; OPM-2, po, read-out: % TGD (tumor growth delay), OPM-2, 3 mg/kg/day, PO, QDx14, vehicle A): 21%
change in vivo at 3 mg/kg ([10]; OPM-2, po, read-out: % TGD (tumor growth delay), OPM-2, 3 mg/kg/day, PO, QDx21, vehicle A): 131%
change in vivo at 6 mg/kg ([10]; OPM-2, po, read-out: % TGD (tumor growth delay), OPM-2, 6 mg/kg/day, PO, Q2D x21 d, vehicle A): 84%
change in vivo at 7 mg/kg ([10]; OPM-2, po, read-out: % TGD (tumor growth delay), OPM-2, 7 mg/kg/day, PO, QD(3 on 4 off)x3, vehicle A): 97%
change in vivo at 10.5 mg/kg ([10]; OPM-2, po, read-out: % TGD (tumor growth delay), OPM-2, 10.5 mg/kg/day, PO, QD(2 on 5 off)x3, vehicle A): 94%
change in vivo at 3 mg/kg ([10]; OPM-2, po, read-out: % TGD (tumor growth delay), OPM-2 xenograft, 3 mg/kg/day PO, QDx14, endpoint of 1000 mm^3): 78%
inhibition in vivo at 0.5 mg/kg [10, 17]: 75%
inhibition in vivo at 1 mg/kg ([10]; OPM-2, po, read-out: % TGI (tumor growth inhibition), OPM-2, PO, BIDx21, vehicle A): 74%
inhibition in vivo at 1 mg/kg [10, 17]: 75%
inhibition in vivo at 3 mg/kg ([10]; OPM-2, po, read-out: % TGI (tumor growth inhibition), OPM-2, 3 mg/kg/day, PO, QDx14, vehicle A): 90%
inhibition in vivo at 3 mg/kg ([10]; OPM-2, po, read-out: % TGI (tumor growth inhibition), OPM-2, 3 mg/kg/day, PO, QDx21, vehicle A): 88%
inhibition in vivo at 6 mg/kg ([10]; OPM-2, po, read-out: % TGI (tumor growth inhibition), OPM-2, 6 mg/kg/day, PO, Q2D x21 d, vehicle A): 82%
inhibition in vivo at 7 mg/kg ([10]; OPM-2, po, read-out: % TGI (tumor growth inhibition), OPM-2, 7 mg/kg/day, PO, QD(3 on 4 off)x3, vehicle A): 81%
inhibition in vivo at 10.5 mg/kg ([10]; OPM-2, po, read-out: % TGI (tumor growth inhibition), OPM-2, 10.5 mg/kg/day, PO, QD(2 on 5 off)x3, vehicle A): 75%
% TGD (tumor growth delay) ([11]; 0.2 mg/kg/day): 93%
% TGI (tumor growth inhibition) ([11]; 0.2 mg/kg/day): 41* %
% TGD (tumor growth delay) ([11]; 2 mg/kg/day): 721*** %
% TGI (tumor growth inhibition) ([11]; 2 mg/kg/day): 86** %
% TGD (tumor growth delay) ([13]; 0.3 mg/kg/day): −1%
% TGI (tumor growth inhibition) ([13]; 0.3 mg/kg/day): 26%
% TGD (tumor growth delay) ([13]; 1 mg/kg/day): 3%
% TGI (tumor growth inhibition) ([13]; 1 mg/kg/day): 41* %
% TGD (tumor growth delay) ([13]; 3 mg/kg/day): 46*** %
% TGI (tumor growth inhibition) ([13]; 3 mg/kg/day): 47** %
